Patent US12568969B2, “Pyridine compounds for controlling invertebrate pests” (FMC Corporation, priority 2020, dated 2026)

Experiments:
Type in all cases: in vivo
[1] = test system: diamondback moth (Plutella xylostella (L.)); assay: Test A: control of diamondback moth on mustard plant, spray; conditions: sprayed at 250 ppm; assessed after 6 days
Procedure: (§1) Test compounds were formulated using a solution containing 10% acetone, […] and 300 ppm Activator 909 non-ionic surfactant (Loveland Products, Loveland, Colorado, USA). The formulated compounds were applied in 1 mL of liquid through an atomizer nozzle positioned 1.27 cm (0.5 inches) above the top of each test unit. Test compounds were sprayed at the rates indicated, and each test was replicated three times.
For evaluating control of diamondback moth (Plutella xylostella (L.)) the test unit consisted of a small open container with a 12-14-day-old mustard plant inside. This was pre-infested with ˜50 neonate larvae that were dispensed into the test unit via corn cob grits using an inoculator. The larvae moved onto the test plant after being dispensed into the test unit.
Test compounds were formulated and sprayed at 250 ppm. After spraying of the formulated test compound, each test unit was allowed to dry for 1 hour and then a black, screened cap was placed on top. The test units were held for 6 days in a growth chamber at 25° C. and 70% relative humidity. Plant feeding damage was then visually assessed based on foliage consumed, and larvae were assessed for mortality.

[2] = test system: green peach aphid (Myzus persicae (Sulzer)); assay: Test D: control of green peach aphid on radish plant, spray; conditions: Myzus persicae, 144 h, 6 days; for mortality at 250 ppm: sprayed at 250 ppm; for mortality at 50 ppm: sprayed at 50 ppm
Procedure: as §1
For evaluating control of green peach aphid (Myzus persicae (Sulzer)) through contact and/or systemic means, the test unit consisted of a small open container with a 12-15-day-old radish plant inside. This was pre-infested by placing on a leaf of the test plant 30-40 aphids on a piece of leaf excised from a culture plant (cut-leaf method). The aphids moved onto the test plant as the leaf piece desiccated. After pre-infestation, the soil of the test unit was covered with a layer of sand.
[…] After spraying of the formulated test compound, each test unit was allowed to dry for 1 hour and then a black, screened cap was placed on top. The test units were held for 6 days in a growth chamber at 19-21° C. and 50-70% relative humidity. Each test unit was then visually assessed for insect mortality.

[3] = test system: cotton melon aphid (Aphis gossypii (Glover)); assay: whole plant or invertebrate; conditions: Aphis gossypii, 144 h, 6 days; for mortality at 50 ppm: sprayed at 50 ppm; for mortality at 250 ppm: sprayed at 250 ppm
Procedure: as §1
[…] This was pre-infested with 30-40 insects on a piece of leaf according to the cut-leaf method, and the soil of the test unit was covered with a layer of sand.
Test compounds were formulated and sprayed at 250 and/or 50 ppm. After spraying, the test units were maintained in a growth chamber for 6 days at 19° C. and 70% relative humidity. Each test unit was then visually assessed for insect mortality.

[4] = test system: corn planthopper (Peregrinus maidis (Ashmead)); assay: whole plant or invertebrate; conditions: Peregrinus maidis, 144 h, 6 days; for mortality at 10 ppm: sprayed at 10 ppm; for mortality at 50 ppm: sprayed at 50 ppm; for mortality at 250 ppm: sprayed at 250 ppm
Procedure: as §1
For evaluating control of corn planthopper (Peregrinus maidis (Ashmead)) through contact and/or systemic means, the test unit consisted of a small open container with a 3-4-day-old corn (maize) plant inside. White sand was added to the top of the soil prior to application of the test compound.
Test compounds were formulated and sprayed at 250 and/or 50 ppm and/or 10 ppm. After spraying of the formulated test compound, the test units were allowed to dry for 1 h before they were post-infested with ˜15-20 nymphs (18-to-21-day-old). A black, screened cap was placed on the top of each test unit, and the test units were held for 6 days in a growth chamber at 22-24° C. and 50-70% relative humidity. Each test unit was then visually assessed for insect mortality.

[5] = test system: sweetpotato whitefly (Bemisia tabaci (Gennadius)); assay: Test F: control of sweetpotato whitefly on cotton plant, spray; conditions: 312 h, 13 days; for mortality at 50 ppm: sprayed at 50 ppm; for mortality at 250 ppm: sprayed at 250 ppm
Procedure: as §1
For evaluating control of the sweetpotato whitefly (Bemisia tabaci (Gennadius)) through contact and/or systemic means, the test unit consisted of a small open container with a 12-14-day-old cotton plant inside. Prior to the spray application, both cotyledons were removed from the plant, leaving one true leaf for the assay. Adult whiteflies were allowed to lay eggs on the plant and then were removed from the test unit. Cotton plants infested with at least 15 eggs were submitted to the test for spraying.
Test compounds were formulated and sprayed at 250 and/or 50 ppm. After spraying, the test units were allowed to dry for 1 hour. The cylinders were then removed, and the units were taken to a growth chamber and held for 13 days at 28° C. and 50-70% relative humidity. Each test unit was then visually assessed for insect mortality.

Compound | control efficacy (40% or less feeding damage and/or 100% mortality) [1] | mortality at 50 ppm [3] [%] | mortality at 250 ppm [3] [%] | mortality at 50 ppm [4] [%] | mortality at 250 ppm [4] [%] | further results
Cc1noc(-c2cncc(Cl)c2C(F)c2ccc(SC(F)(F)F)cc2)n1 (racemic) [Compound 103] | very good to excellent levels of control efficacy |  |  |  |  | 
Fc1cncc(-c2ccco2)c1C(F)c1ccc(OC(F)(F)F)cc1 (stereo not drawn) [Compound 22] | very good to excellent levels of control efficacy | ≥ 80 | ≥ 80 | ≥ 80 | ≥ 80 | mortality at 250 ppm [2]: ≥ 80%; mortality at 10 ppm [4]: ≥ 80%
Cc1noc(-c2cncc(F)c2C(F)c2ccc(OC(F)(F)F)cc2)n1 (racemic) [Compound 39] | very good to excellent levels of control efficacy |  |  |  |  | 
N#Cc1cncc(-n2nccn2)c1C(F)c1ccc(OC(F)(F)F)cc1 (stereo not drawn) [Compound 48] | very good to excellent levels of control efficacy |  |  | ≥ 80 |  | mortality at 50 ppm [2]: ≥ 80%; mortality at 250 ppm [2]: ≥ 80%; mortality at 10 ppm [4]: ≥ 80%
Fc1cncc(-c2cnco2)c1C(F)c1ccc(OC(F)(F)F)cc1 (stereo not drawn) [Compound 34] | very good to excellent levels of control efficacy | ≥ 80 | ≥ 80 | ≥ 80 | ≥ 80 | mortality at 50 ppm [2]: ≥ 80%; mortality at 250 ppm [2]: ≥ 80%
CCn1nccc1-c1cncc(F)c1C(F)c1ccc(OC(F)(F)F)cc1 (stereo not drawn) [Compound 55] | very good to excellent levels of control efficacy |  |  | ≥ 80 |  | 
FC(c1ccc2c(c1)OC(F)(F)O2)c1c(Br)cncc1-n1nccn1 (stereo not drawn) [Compound 147] | very good to excellent levels of control efficacy |  |  |  |  | 
COC(c1ccc(SC(F)(F)F)cc1)c1c(Br)cncc1-n1nccn1 (stereo not drawn) [Compound 133] | very good to excellent levels of control efficacy | ≥ 80 | ≥ 80 |  |  | mortality at 50 ppm [5]: ≥ 70%; mortality at 250 ppm [5]: ≥ 70%
COC(c1ccc(SC(F)(F)F)cc1)c1c(Cl)cncc1-n1nccn1 (single isomer, unassigned) [Compound 130] | very good to excellent levels of control efficacy | ≥ 80 | ≥ 80 | ≥ 80 | ≥ 80 | mortality at 50 ppm [2]: ≥ 80%; mortality at 250 ppm [2]: ≥ 80%; mortality at 10 ppm [4]: ≥ 80%
Fc1cncc(-c2ccoc2)c1C(F)c1ccc(OC(F)(F)F)cc1 (stereo not drawn) [Compound 23] | very good to excellent levels of control efficacy |  |  | ≥ 80 | ≥ 80 | mortality at 250 ppm [2]: ≥ 80%
Cc1noc(-c2cncc(Cl)c2C(F)c2ccc([S+]([O-])C(F)(F)F)cc2)n1 (mixture of isomers) [Compound 104] | very good to excellent levels of control efficacy |  |  |  |  | 
COC(c1ccc2c(c1)OC(F)(F)O2)c1c(F)cncc1-n1cccn1 (stereo not drawn) [Compound 155] | very good to excellent levels of control efficacy |  |  |  |  | 
Cn1ccc(-c2cncc(F)c2C(F)c2ccc(OC(F)(F)F)cc2)n1 (stereo not drawn) [Compound 59] | very good to excellent levels of control efficacy |  | ≥ 80 |  |  | 
Fc1cncc(-n2nccn2)c1C(F)c1ccc(C(F)(F)F)cc1 (stereo not drawn) [Compound 20] | very good to excellent levels of control efficacy | ≥ 80 | ≥ 80 | ≥ 80 | ≥ 80 | mortality at 50 ppm [2]: ≥ 80%; mortality at 250 ppm [2]: ≥ 80%
Fc1cncc(-c2nnco2)c1C(F)c1ccc(OC(F)(F)F)cc1 (stereo not drawn) [Compound 30] | very good to excellent levels of control efficacy |  |  | ≥ 80 | ≥ 80 | mortality at 250 ppm [2]: ≥ 80%; mortality at 10 ppm [4]: ≥ 80%
Fc1cncc(-n2nccn2)c1C(F)c1ccc(C(F)(F)F)cn1 (stereo not drawn) [Compound 172] | very good to excellent levels of control efficacy |  |  |  |  | 
Fc1cncc(-n2nccn2)c1C(F)c1ccc(Br)nc1 (stereo not drawn) [Compound 166] | very good to excellent levels of control efficacy |  |  |  |  | 
COC(c1ccc(OC(F)(F)F)cc1)c1ncncc1-n1nccn1 (stereo not drawn) [Compound 175] | very good to excellent levels of control efficacy |  |  |  |  | 
Fc1cncc(-n2cccn2)c1C(F)c1cnc(C(F)(F)F)nc1 (stereo not drawn) [Compound 162] | very good to excellent levels of control efficacy |  |  |  |  | 
FC(c1ccc(OC(F)(F)F)cc1)c1c(C2CC2)cncc1-n1nccn1 (racemic) [Compound 53] | very good to excellent levels of control efficacy |  |  |  |  | 
FC(c1ccc(SC(F)(F)F)cc1)c1c(Cl)cncc1-c1cnco1 (stereo not drawn) [Compound 105] | very good to excellent levels of control efficacy | ≥ 80 | ≥ 80 | ≥ 80 | ≥ 80 | 
Fc1cncc(-n2cncn2)c1C(F)c1ccc(C(F)(F)F)cc1 (stereo not drawn) [Compound 18] | very good to excellent levels of control efficacy |  |  | ≥ 80 | ≥ 80 | mortality at 50 ppm [2]: ≥ 80%; mortality at 250 ppm [2]: ≥ 80%
FC(c1ccc(OC(F)(F)F)cc1)c1c(Cl)cncc1-c1cnco1 (stereo not drawn) [Compound 60] | very good to excellent levels of control efficacy |  | ≥ 80 |  |  | 
Fc1cncc(-c2cccs2)c1C(F)c1ccc(OC(F)(F)F)cc1 (stereo not drawn) [Compound 45] | very good to excellent levels of control efficacy | ≥ 80 | ≥ 80 | ≥ 80 |  | mortality at 10 ppm [4]: ≥ 80%
Fc1cncc(-c2cnco2)c1C(F)c1ccc(SC(F)(F)F)cc1 (stereo not drawn) [Compound 100] | very good to excellent levels of control efficacy | ≥ 80 | ≥ 80 |  |  | 
Fc1cncc(-n2cccn2)c1C(F)c1ccc(C(F)(F)F)cn1 (stereo not drawn) [Compound 171] | very good to excellent levels of control efficacy |  |  |  |  | 
FC(c1ccc(OC(F)(F)F)cc1)c1c(Cl)cncc1-c1ncco1 (stereo not drawn) [Compound 51] | very good to excellent levels of control efficacy | ≥ 80 | ≥ 80 | ≥ 80 |  | mortality at 10 ppm [4]: ≥ 80%
COC(c1ccc(SC(F)(F)F)cc1)c1c(I)cncc1-n1nccn1 (stereo not drawn) [Compound 120] | very good to excellent levels of control efficacy |  |  | ≥ 80 | ≥ 80 | mortality at 50 ppm [5]: ≥ 70%; mortality at 250 ppm [5]: ≥ 70%
